Reference: ChEMBL document CHEMBL1201862, “PubChem BioAssay data set” (2004)
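Briefly, cells in 96-well plates were exposed to five compound concentrations for 48 h, and endpoints were estimated by linear interpolation. GI50 = concentration required for 50% inhibition of growth.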 Calls of active or inactive are those of the source. Cut-off read from the data, not from the text of the source: active = GI50 up to about 1.1 µM and inactive = higher.

How the values were obtained:
Assay in all cases: inhibition of tumour cell growth, NCI panel, 48 h
[1] = tested on: SK-MEL-2
[2] = tested on: HCC 2998
[3] = tested on: SN12C
[4] = tested on: TK-10
[5] = tested on: NCI-H226
[6] = tested on: MDA-MB-435
[7] = tested on: U-251
[8] = tested on: OVCAR-3
[9] = tested on: SNB-19
[10] = tested on: HOP-62
[11] = tested on: SNB-78
[12] = tested on: OVCAR-5
[13] = tested on: LOX IMVI
[14] = tested on: CCRF-CEM
[15] = tested on: SF-268
[16] = tested on: SNB-75
[17] = tested on: A498
[18] = tested on: T47D
[19] = tested on: IGROV-1
[20] = tested on: EKVX

CN(C)CC1CC/C(=C\c2ccc(O)cc2)C1=O (centres undefined) was tested, and the GI50 [1] was 8.28 µM (inactive), the GI50 [2] was 10.7 µM (inactive) and the GI50 [3] was 5.64 µM (inactive). The GI50 [4] was 3.2 µM (inactive), the GI50 [5] was 10.4 µM (inactive) and the GI50 [6] was 5.07 µM (inactive). For the same molecule, the GI50 [7] was 6.71 µM (inactive), the GI50 [8] was 3.67 µM (inactive) and the GI50 [9] was 16.9 µM (inactive). For the same molecule, the GI50 [10] was 18.5 µM (inactive), the GI50 [11] was 11.4 µM (inactive) and the GI50 [12] was 17.4 µM (inactive). The GI50 [13] was 2.3 µM (inactive), the GI50 [14] was 0.933 µM (active) and the GI50 [15] was 9.62 µM (inactive). The GI50 [16] was 11 µM (inactive), the GI50 [17] was 9.35 µM (inactive) and the GI50 [18] was 2.14 µM (inactive). For the same molecule, the GI50 [19] was 11.3 µM (inactive) and the GI50 [20] was 4.83 µM (inactive).
O=C1C=C(Br)C(=O)C12CCc1ccccc12 (centres undefined) was tested, and the GI50 [1] was 19.6 µM (inactive), the GI50 [2] was 22.3 µM (inactive) and the GI50 [3] was 17.3 µM (inactive). For the same molecule, the GI50 [4] was 17.8 µM (inactive), the GI50 [5] was 18.3 µM (inactive) and the GI50 [6] was 14.7 µM (inactive). For the same molecule, the GI50 [7] was 21.7 µM (inactive), the GI50 [8] was 18.5 µM (inactive) and the GI50 [9] was 32.9 µM (inactive). The GI50 [10] was 39 µM (inactive), the GI50 [11] was 22.6 µM (inactive) and the GI50 [12] was 18 µM (inactive). For the same molecule, the GI50 [13] was 12.5 µM (inactive), the GI50 [14] was 2.66 µM (inactive) and the GI50 [15] was 22.3 µM (inactive). The GI50 [16] was 13.6 µM (inactive), the GI50 [17] was 4.61 µM (inactive) and the GI50 [18] was 17.8 µM (inactive). The GI50 [19] was 20.5 µM (inactive) and the GI50 [20] was 25.4 µM (inactive).
With C/C(=N\N=C(/S)N(C)C)c1cccc[n+]1[O-] the GI50 [1] was 38.5 µM (inactive), the GI50 [2] was 19.9 µM (inactive) and the GI50 [3] was 79.1 µM (inactive). For the same molecule, the GI50 [4] was 82.2 µM (inactive), the GI50 [5] was 54.6 µM (inactive) and the GI50 [6] was 65.8 µM (inactive). For the same molecule, the GI50 [7] was 44.3 µM (inactive), the GI50 [8] was 5.12 µM (inactive) and the GI50 [9] was 91 µM (inactive). For the same molecule, the GI50 [10] was 18 µM (inactive), the GI50 [11] was > 100 µM (inactive) and the GI50 [12] was 35.9 µM (inactive). The GI50 [13] was 20.5 µM (inactive), the GI50 [14] was 0.565 µM (active) and the GI50 [15] was 38.2 µM (inactive). For the same molecule, the GI50 [16] was 93.1 µM (inactive), the GI50 [17] was > 100 µM (inactive) and the GI50 [18] was 0.413 µM (active). The GI50 [19] was 45.3 µM (inactive) and the GI50 [20] was 25.9 µM (inactive).
With COc1ccc(Cc2cc(OC)c(OC)c(OC)c2)cc1 the GI50 [1] was 0.218 µM (active), the GI50 [2] was 0.226 µM (active) and the GI50 [3] was 0.671 µM (active). For the same molecule, the GI50 [4] was 6.79 µM (inactive), the GI50 [5] was 0.923 µM (active) and the GI50 [6] was 0.0236 µM (active). The GI50 [7] was 0.261 µM (active), the GI50 [8] was 0.151 µM (active) and the GI50 [9] was 0.324 µM (active). For the same molecule, the GI50 [10] was 0.411 µM (active), the GI50 [11] was 3.34 µM (inactive) and the GI50 [12] was 8.83 µM (inactive). For the same molecule, the GI50 [13] was 0.393 µM (active), the GI50 [14] was 0.165 µM (active) and the GI50 [15] was 1.27 µM (inactive). For the same molecule, the GI50 [16] was 0.192 µM (active), the GI50 [17] was 0.27 µM (active) and the GI50 [18] was 30.8 µM (inactive). For the same molecule, the GI50 [19] was 0.863 µM (active) and the GI50 [20] was 1.14 µM (inactive).
CN(CO)c1nc(N(C)CO)nc(N(C)CO)n1 [TRIMELAMOL] was tested, and the GI50 [4] was 31.8 µM (inactive), the GI50 [6] was 20.1 µM (inactive) and the GI50 [7] was 19.5 µM (inactive). The GI50 [8] was 27.7 µM (inactive), the GI50 [9] was 16.1 µM (inactive) and the GI50 [10] was 20 µM (inactive). For the same molecule, the GI50 [11] was 9.77 µM (inactive), the GI50 [12] was 26.4 µM (inactive) and the GI50 [13] was 9.86 µM (inactive). The GI50 [14] was 5.78 µM (inactive), the GI50 [16] was 18.5 µM (inactive) and the GI50 [17] was 23.7 µM (inactive). The GI50 [18] was 32.1 µM (inactive), the GI50 [19] was 23.7 µM (inactive) and the GI50 [20] was 19.7 µM (inactive).
For C#CCOCn1cnc2c(N)ncnc21, the GI50 [1] was > 100 µM (inactive), the GI50 [2] was > 100 µM (inactive) and the GI50 [3] was > 100 µM (inactive). The GI50 [4] was > 100 µM (inactive), the GI50 [5] was > 100 µM (inactive) and the GI50 [7] was > 100 µM (inactive). For the same molecule, the GI50 [8] was > 100 µM (inactive), the GI50 [9] was > 100 µM (inactive) and the GI50 [10] was > 100 µM (inactive). The GI50 [11] was > 100 µM (inactive), the GI50 [12] was > 100 µM (inactive) and the GI50 [13] was > 100 µM (inactive). For the same molecule, the GI50 [14] was > 100 µM (inactive), the GI50 [15] was > 100 µM (inactive) and the GI50 [16] was > 100 µM (inactive). For the same molecule, the GI50 [17] was > 100 µM (inactive), the GI50 [19] was > 100 µM (inactive) and the GI50 [20] was > 100 µM (inactive).
C/C(CN1C(=O)c2ccccc2C1=O)=N\NS(=O)(=O)c1ccc(Br)cc1 was tested, and the GI50 [1] was > 100 µM (inactive), the GI50 [2] was > 100 µM (inactive) and the GI50 [3] was > 100 µM (inactive). The GI50 [4] was > 100 µM (inactive), the GI50 [5] was > 100 µM (inactive) and the GI50 [7] was > 100 µM (inactive). For the same molecule, the GI50 [8] was > 100 µM (inactive), the GI50 [9] was > 100 µM (inactive) and the GI50 [10] was > 100 µM (inactive). For the same molecule, the GI50 [11] was > 100 µM (inactive), the GI50 [12] was > 100 µM (inactive) and the GI50 [13] was > 100 µM (inactive). The GI50 [14] was > 100 µM (inactive), the GI50 [15] was > 100 µM (inactive) and the GI50 [16] was > 100 µM (inactive). The GI50 [17] was > 100 µM (inactive), the GI50 [19] was > 100 µM (inactive) and the GI50 [20] was > 100 µM (inactive).
In the case of Cc1nc2ccccc2nc1NS(=O)(=O)c1ccc(N)cc1, the GI50 [1] is reported as > 100 µM (inactive), the GI50 [2] is reported as > 100 µM (inactive) and the GI50 [3] is reported as > 100 µM (inactive). For the same molecule, the GI50 [4] was > 100 µM (inactive), the GI50 [5] was > 100 µM (inactive) and the GI50 [7] was > 100 µM (inactive). For the same molecule, the GI50 [8] was > 100 µM (inactive), the GI50 [9] was > 100 µM (inactive) and the GI50 [10] was > 100 µM (inactive). For the same molecule, the GI50 [11] was > 100 µM (inactive), the GI50 [12] was > 100 µM (inactive) and the GI50 [13] was > 100 µM (inactive). The GI50 [14] was > 100 µM (inactive), the GI50 [15] was > 100 µM (inactive) and the GI50 [16] was 50.9 µM (inactive). The GI50 [17] was > 100 µM (inactive), the GI50 [19] was > 100 µM (inactive) and the GI50 [20] was > 100 µM (inactive).
